{
  "source": "paper PMC6212948",
  "about": "“Fucoxanthin-Containing Cream Prevents Epidermal Hyperplasia and UVB-Induced Skin Erythema in Mice” (Marine Drugs, 2018)",
  "key": {"[1]": {"system": "TPA-induced epidermal hyperplasia in mice dorsal skin", "test": "TPA-induced epidermal hyperplasia model", "format": "in vivo, Swiss CD-1 mice", "conditions": "topical cream 100 mg per site containing 200 µg drug, vs TPA-cream group", "description": "Female Swiss CD-1 mice (n = 10 per group) were used to study the effect of FX on TPA-induced hyperplasia in mice dorsal skin. Briefly, the dorsal hair of animals was removed with an electric clipper and treated with depilatory cream (Deliplus, Barcelona, Spain). After 24 h, the animals were assigned to the different groups: Sham (vehicle: 100 mg of cream with 0.2% of ethanol); TPA control group; TPA-Cream (vehicle: 100 mg of cream with 0.2% of ethanol); Dex-cream (100 mg of cream per site, containing 200 µg of Dex dissolved in ethanol at 10 µg/mL); FX-cream formulation (100 mg of cream per site, containing 200 µg of FX dissolved in ethanol at 10 µg/mL). The creams were applied to the dorsal skin in an area of 1 cm^2 using a syringe, during 2 days before the hyperplasia induction. Mice were anesthetized with ketamine (100 mg/kg of animal) and diazepam (5 mg/kg of animal) during treatments and TPA challenge. On day 4, TPA (2 nmol of TPA, dissolved in 20 µL of ethanol) was topically applied to the same areas on all groups except in sham group. After 1 h, FX-cream, the Dex-cream or vehicle were administered following the mentioned protocol. This procedure was replicated during two consecutive days. After 24 h of the last TPA dorsal application (day 7), mice were sacrificed by cervical dislocation and punch biopsies from the treated dorsal skin were weighed to evaluate edema, before further processing for histology and biochemical parameters.\nThe measurement of MPO activity was used as a marker of neutrophil infiltration. The tissue was thawed, weighed and homogenized in 10 volumes of 50 mM-PBS (pH 7.4). Then, the homogenate was centrifuged at 20,000× g for 20 min at 4 °C and the pellet was again homogenized in 10 volumes of 50 mM-PBS (pH 6) containing hexadecyl trimethylammonium bromide (0.5%) and 10 mM-EDTA. This homogenate was subjected to one cycle of freezing/thawing and sonicated. […] The changes in absorbance were monitorized at 450 nm with a microplate reader (Labysystem Multiskan EX, Thermo Scientific, New York, NY, USA). MPO activity unit was defined as the amount of enzyme present that produced a change in absorbance of 1.0 unit/min at 37 °C in the final reaction volume containing acetate. Results are expressed as units/mg tissue.\nThe samples were fixed in paraformaldehyde, dehydrated by increasing concentrations of ethanol and embedded in paraffin. […] Epidermal thickness was measured by using Scientific Imaging Systems (Biophotonics ImageJ Analysis Software; National Institutes of Health, Rockville, MD, USA).\nCOX-2 expression was measured by immunohistochemical analysis by using a streptavidin-biotin-peroxidase method. […]"}, "[2]": {"system": "TNF-α production in LPS-stimulated THP-1 macrophages", "test": "TNF-α production in LPS-stimulated THP-1 macrophages (ELISA)", "format": "cell-based, human", "description": "THP-1 monocytes were differentiated into macrophages in 96-well plates (10^4 cells/well). Then, cells were incubated for 1 h with FX (10, 30 and 50 µM). The positive reference compound used was Dex (1 µM) (Sigma-Aldrich, St. Louis, MO, USA). Inflammatory response was induced by addition of LPS (1 μg/mL) except for control group. After 24 h, commercial enzyme-linked immunosorbent assay (ELISA) kit (Diaclone GEN-PROBE, Besançon, France) was used to quantify TNF-α according to the manufacturer’s protocol."}, "[3]": {"system": "UVB-irradiated HaCaT cells", "test": "Intracellular ROS (DCF-DA assay) in UVB-irradiated HaCaT keratinocytes", "format": "cell-based, human", "conditions": "1 h prior to UVB 50 mJ/cm^2, 30 min after irradiation, vs UVB", "description": "(§1) Human keratinocytes were exposed to UVB radiation as previously described. Briefly, the cells were grown to confluence and were treated with different concentrations of FX (10, 30 and 50 µM) for 1 h. Then, the medium was removed and a thin layer of PBS was added. Cells were exposed to a single dose of UVB radiation (50 mJ/cm^2) for 1 min. The UVB source was a CL-1000M UV Crosslinker (UVP, Upland, CA, USA), which was used to deliver an energy spectrum of UVB light (280–315 nm; peak intensity, 302 nm). After UVB irradiation, the cells were supplied with fresh complete medium and incubated for 24 h.\nFor quantification of ROS in HaCaT cells, the DCF-DA assay was employed. HaCaT cells were seeded in nin96-well plates (10^4 cells/well). Non-irradiated cells were used as negative control. After 24 h, cells were treated with FX (10, 30 and 50 µM) for 1 h and then, were exposed to UVB. Post irradiation, cells were incubated with 2′,7′-dichlorodihydrofluorescein diacetate (DCFH-DA) solution (5 mg/mL) in PBS for 30 min [63]. The fluorescence of the 2′,7′-dichlorofluorescein (DCF) product was determined using a fluorescence plate reader (Sinergy HT, Biotek®, Bad Friedrichshall, Germany) at 485 nm for excitation and 535 nm for emission."}, "[4]": {"system": "HaCaT human keratinocytes", "test": "SRB cell viability assay, HaCaT keratinocytes", "format": "cell-based", "conditions": "for % Viability HaCaT keratinocytes (24 h): mean ± ES, n = 3", "description": "(§2) The THP-1 human monocytic leukemia cell line and HaCaT human keratinocytes were obtained from the American Type Culture Collection (ATCC, Manassas, VA, USA). THP-1 cells were cultured in RPMI 1640 medium (GIBCO, Grand Island, New York, NY, USA) containing 10% heat-inactivated fetal bovine serum (FBS), 100 U/mL penicillin and 100 μg/mL streptomycin. HaCaT human keratinocytes were maintained in high glucose Dulbecco’s modified Eagle’s medium (DMEM, GIBCO, Grand Island, New York, NY, USA). Both cell lines were grown in a humidified atmosphere containing 5% CO2 at 37 °C [20].\n(§3) SRB assay was used for determining the viability of THP-1 macrophages and HaCaT cells upon exposure to FX (Sigma-Aldrich, St. Louis, MO, USA). Firstly, for differentiation into macrophages, THP-1 cells were seeded into 96-well plates at 10^4 cells/well in presence of phorbol 12-myristate 13-acetate (PMA, Sigma-Aldrich, St. Louis, MO, USA) for a final concentration of 0.2 µM for 72 h in 96-well plates and HaCaT cells were seeded into 96-well plates in the growth medium at 10^4 cells/well for 24 h to ensure the adherence. Both cellular types were incubated in a humidified atmosphere of 5% CO2 at 37 °C. After that, cells were treated with FX at final concentrations range of 10–100 µM in DMSO 0.1% (v/v) and the cytotoxicity was measured after 24, 48 and 72 h of incubation. The absorbance was determined at 492 nm in a microplate spectrophotometer (Sinergy HT, Biotek®, Bad Friedrichshall, Germany)."}, "[5]": {"system": "IL-6 and IL-8 production in TNF-α-stimulated HaCaT keratinocytes", "test": "IL-6 and IL-8 production in TNF-α-stimulated HaCaT keratinocytes (ELISA)", "format": "cell-based, human", "conditions": "all concentrations tested (10, 30 and 50 μM), 1 h pre-treatment, TNF-α 10 ng/mL 24 h, vs TNF-α group", "description": "HaCaT cells were seeded in 6-well plates (5 × 10^5 cells/well). After 24 h, cells were washed twice (PBS, 4 °C) and medium containing FX (10, 30 and 50 μM) or Dex (1 μM) was added for 1 h, and then cells were stimulated with TNF-α (10 ng/mL) except for control group. After 24 h, supernatant fluids were collected and stored −80 °C until measurements. Commercial enzyme-linked immunosorbent assay (ELISA) kit (Diaclone GEN-PROBE, Besançon, France) was used to quantify IL-6 and IL-8 according to the manufacturer’s protocol."}, "THP-1 macrophages": {"system": "THP-1 macrophages", "test": "SRB cell viability assay, THP-1 macrophages", "format": "cell-based, human", "conditions": "for % Viability THP-1 macrophages (24 h): mean ± ES, n = 3", "description": "as §2, §3"}, "[6]": {"conditions": "cited from earlier work"}, "[7]": {"system": "UVB-irradiated HaCaT cells", "test": "LDH assay in UVB-irradiated HaCaT keratinocytes", "format": "cell-based, human", "conditions": "10, 30 and 50 μM, 1 h prior to UVB 50 mJ/cm^2, 24 h, dose-dependent", "description": "as §1\nThe measure of cytosolic enzyme LDH is one of the commonly used methods for assessing loss of cellular membrane integrity. The assay is based on the conversion of […] in the presence of LDH with the consequence oxidation of NADH as previously described. HaCaT cells were seeded in 6-well plates (5 × 10^5 cells/well). After 24 h, cells were treated with FX (10, 30 and 50 μM) for 1 h and then, were irradiated with UVB. After 24 h, cell-free supernatants and cell lysates were mixed in a 96-well plate and the absorbance was read by using a microplate reader system (Sinergy HT, Biotek®, Bad Friedrichshall, Germany). LDH leakage was estimated calculating the LDH activity in the cell-free medium and LDH activity in lysates ratio. […]"}, "[8]": {"system": "IL-6 production in UVB-exposed HaCaT keratinocytes", "test": "IL-6 production in UVB-exposed HaCaT keratinocytes (ELISA)", "format": "cell-based, human", "conditions": "1 h prior to UVB, 24 h after exposure, vs UVB", "description": "as §1\nHaCaT cells (5 × 10^5 cells/well) were seeded in 6-well plates. After 24 h, cells were treated with FX (10, […] and 50 μM) for 1 h and then, were exposed to UVB. After 24 h, supernatant fluids were collected and ELISA kit (Diaclone GEN-PROBE, Besançon, France) was employed to quantify IL-6 according to the manufacturer’s protocol. The absorbance at 450 nm was read by a microplate reader (Labysystem Multiskan EX, Thermo Scientific, New York, NY, USA)."}, "[9]": {"conditions": "24 h after treatment, SRB assay"}},
  "data": [
    {"smiles": "C[C@@H]1C[C@H]2[C@@H]3CCC4=CC(=O)C=C[C@]4(C)[C@@]3(F)[C@@H](O)C[C@]2(C)[C@@]1(O)C(=O)CO", "note": "[Dex, dexamethasone]", "values": [
      {"measurement": "epidermal hyperplasia (epidermal thickness, H&E)", "setting": "[1]", "value": "significant improvement"},
      {"measurement": "myeloperoxidase (MPO) activity in skin homogenates", "setting": "[1]", "value": "markedly diminished"},
      {"measurement": "epidermal COX-2-positive stained cells (immunohistochemistry)", "setting": "[1]; p < 0.001", "value": "confirmed the anti-inflammatory effect"},
      {"measurement": "skin edema (weight of 1 cm^2 punch biopsy)", "setting": "[1]; p < 0.001", "value": "significantly reduced"}
    ]},
    {"smiles": "CC(=O)O[C@H]1CC(C)(C)C(=C=C/C(C)=C/C=C/C(C)=C/C=C/C=C(C)/C=C/C=C(\\C)C(=O)C[C@@]23O[C@]2(C)C[C@@H](O)CC3(C)C)[C@](C)(O)C1", "note": "[FX, fucoxanthin]", "values": [
      {"measurement": "TNF-α production", "setting": "[2]; 50 µM pre-treatment, LPS-stimulated, p < 0.001, similar values to Dex 1 μM", "value": "significant reduction"},
      {"measurement": "TNF-α production", "setting": "[2]; all concentrations tested (10, 30 and 50 μM), 1 h pre-treatment, LPS 1 μg/mL 24 h, vs LPS group", "value": "significantly reduced"},
      {"measurement": "reduction of ROS levels", "setting": "[3]; 10 μM", "value": 23, "unit": "%"},
      {"measurement": "reduction of ROS levels", "setting": "[3]; 30 μM", "value": 31, "unit": "%"},
      {"measurement": "reduction of ROS levels", "setting": "[3]; 50 μM", "value": 32, "unit": "%"},
      {"measurement": "% Viability HaCaT keratinocytes (24 h)", "setting": "[4]; 10 μM", "value": "111.2 ± 2.1", "unit": "%"},
      {"measurement": "% Viability HaCaT keratinocytes (24 h)", "setting": "[4]; 30 μM", "value": "105.2 ± 4.0", "unit": "%"},
      {"measurement": "% Viability HaCaT keratinocytes (24 h)", "setting": "[4]; 50 μM", "value": "103.9 ± 3.2", "unit": "%"},
      {"measurement": "% Viability HaCaT keratinocytes (24 h)", "setting": "[4]; 100 μM", "value": "101.5 ± 2.2", "unit": "%"},
      {"measurement": "IC50", "setting": "[4]; [9]", "value": "> 100", "unit": "µM"},
      {"measurement": "IL-6 production", "setting": "[5]", "value": "significantly reduced"},
      {"measurement": "IL-8 production", "setting": "[5]", "value": "significantly reduced"},
      {"measurement": "% Viability THP-1 macrophages (24 h)", "setting": "THP-1 macrophages; 10 μM", "value": "97.5 ± 2.0", "unit": "%"},
      {"measurement": "% Viability THP-1 macrophages (24 h)", "setting": "THP-1 macrophages; 30 μM", "value": "96.5 ± 1.2", "unit": "%"},
      {"measurement": "% Viability THP-1 macrophages (24 h)", "setting": "THP-1 macrophages; 50 μM", "value": "103.7 ± 1.1", "unit": "%"},
      {"measurement": "% Viability THP-1 macrophages (24 h)", "setting": "THP-1 macrophages; 100 μM", "value": "90.7 ± 0.5", "unit": "%"},
      {"measurement": "IC50", "setting": "THP-1 macrophages; [9]", "value": "> 100", "unit": "µM"},
      {"measurement": "partition coefficient (log P)", "setting": "[6]", "value": "6.83–7.54"},
      {"measurement": "UVB-induced mortality (LDH activity)", "setting": "[7]", "value": "significantly decreased"},
      {"measurement": "inhibition of IL-6 levels", "setting": "[8]; 10 μM", "value": 23, "unit": "%"},
      {"measurement": "inhibition of IL-6 levels", "setting": "[8]; 30 μM", "value": 31, "unit": "%"},
      {"measurement": "inhibition of IL-6 levels", "setting": "[8]; 50 μM", "value": 59, "unit": "%"}
    ]}
  ]
}
